The text below walks through data of US20230058961A1, “SUBSTITUTED HETEROCYCLICS WITH THERAPEUTIC ACTIVITY IN HIV” (New York Blood Center, Inc., priority 2019, published 2023).

One data set has as its system pseudovirus HIV-1 HXB2. The data set is described as follows: organism not typed. To be noted: anti-HIV-1 activity, single-cycle assay, TZM-bl cells, pseudovirus HIV-1 HXB2; read-out: IC50. The format is cell-based.
The test system of the next data set is TZM-bl cells. To be noted: human, 3 days.
Another data set in a line: in vitro. The note with it: human.
Data set [1] relates to panel of HIV-1 Env Pseudoviruses (49 clones of clinical isolates, subtypes A, B, C, D, Arec). The format is cell-based. The note with it: 49 HIV-1 clones of clinical isolates.

Experimental for TZM-bl cells: (§1) The anti-HIV-1 activity was assessed in a single-cycle assay by infecting TZM-bl indicator cells with the pseudovirus HIV-1 HXB2 according to established procedures (F. Curreli, Y. D. Kwon, D. S. Belov, R. R. Ramesh, A. V. Kurkin, A. Altieri, P. D. Kwong, A. K. Debnath, J Med Chem 2017, 60, 3124-3153; which is incorporated herein by reference for all that it teaches about the conduct and interpretation of the assay).
(§2) The cytotoxicity of the small polycyclic molecules in TZM-bl cells was determined by using the colorimetric method CellTiter 96® AQueous One Solution Cell Proliferation Assay (MTS) (Promega) following the manufacturer's instructions. Briefly, TZM-bl cells were platted in a 96-well tissue culture plate at 1×10^4/well and cultured at 37° C. Following overnight incubation, the cells were incubated with 100 μl of the compounds at graded concentrations and cultured for 3 days. The MTS reagent was added to the cells and incubated for 4 h at 37° C. The absorbance was recorded at 490 nm.
Experimental for in vitro: as §1, §2

Regarding `NCC(NC(=O)c1ccc(-c2ccc(C(F)(F)F)cn2)[nH]1)c1nc(CCCO)cs1` (stereo not shown) [Compound 27, N-(2-Amino-1-(4-(3-hydroxypropyl)thiazol-2-yl)ethyl)-5-(5-(trifluoromethyl)pyridin-2-yl)-1H-pyrrole-2-carboxamide], in the data set on pseudovirus HIV-1 HXB2, the IC50 amounted to 2.3 ± 0.3 µM. The compound also had a CC50 in the data set on TZM-bl cells of over 114 µM. The CC50 at 3 days in the data set “in vitro” (CC50) was over 100 µM.

For `Cc1cc(-c2ccc(C(F)(F)F)cn2)[nH]c1C(=O)NC(CN)c1nc(CO)cs1` (stereo not shown) [Compound 33, N-(2-Amino-1-(4-(hydroxymethyl)thiazol-2-yl)ethyl)-3-methyl-5-(5-(trifluoromethyl)pyridin-2-yl)-1H-pyrrole-2-carboxamide], the “anti-HIV-1 activity against panel of HIV-1 Env pseudotypes (in words)” value in data set [1] was “sub-micromolar”. The CC50 at 3 days in the data set “in vitro” (CC50) came out at 85 ± 3 µM.

`CC(C)(N)C(NC(=O)c1ccc(-c2ccc(C(F)(F)F)cn2)[nH]1)c1ncc(CO)s1` (stereo not shown) [Compound 9, N-(2-Amino-1-(5-(hydroxymethyl)thiazol-2-yl)-2-methylpropyl)-5-(5-(trifluoromethyl)pyridin-2-yl)-1H-pyrrole-2-carboxamide] registered a CC50 with TZM-bl cells of 74 ± 3.6 µM. The compound also came in with a CC50 at 3 days in “in vitro” (CC50) of under 50 µM.

In the case of `NCC(NC(=O)c1ccc(-c2ccc(Cl)cn2)[nH]1)c1ncc(CO)s1` (stereo not shown) [Compound 1, N-(2-Amino-1-(5-(hydroxymethyl)thiazol-2-yl)ethyl)-5-(5-chloropyridin-2-yl)-1H-pyrrole-2-carboxamide], in the data set on pseudovirus HIV-1 HXB2, the 50% inhibitory concentration (IC50) is 0.85 ± 0.1 µM. This compound also showed a CC50 in the data set with TZM-bl cells of 144 ± 7.5 µM. In addition, the CC50 at 3 days in “in vitro” (CC50, cytotoxicity, TZM-bl cells, MTS, 3 days) is over 100 µM.

For `Cc1cc(-c2ccc(C(F)(F)F)cn2)[nH]c1C(=O)NC(CN)c1ncc(CO)s1` (stereo not shown) [Compound 8, N-(2-amino-1-(5-(hydroxymethyl)thiazol-2-yl)ethyl)-3-methyl-5-(5-(trifluoromethyl)pyridin-2-yl)-1H-pyrrole-2-carboxamide], the “anti-HIV-1 activity against panel of HIV-1 Env pseudotypes (in words)” value in data set [1] is given as “sub-micromolar”. Also, in the data set on TZM-bl cells, the CC50 is 109 ± 2 µM.

As for `Cc1cc(-c2ccc(C(F)(F)F)cn2)[nH]c1C(=O)NC(CN)c1cnc(CO)s1` (stereo not shown) [Compound 62, N-(2-Amino-1-(2-(hydroxymethyl)thiazol-5-yl)ethyl)-3-methyl-5-(5-(trifluoromethyl)pyridin-2-yl)-1H-pyrrole-2-carboxamide], in the data set with pseudovirus HIV-1 HXB2, the IC50 amounted to 1.9 ± 0.25 µM. This compound yielded a CC50 in the data set with TZM-bl cells of 63.8 ± 2.1 µM.

For the compound `NCC(NC(=O)c1ccc(-c2ccc(C(F)(F)F)cn2)[nH]1)c1cnc(CO)s1` (stereo not shown) [Compound 58, N-(2-Amino-1-(2-(hydroxymethyl)thiazol-5-yl)ethyl)-5-(5-(trifluoromethyl)pyridin-2-yl)-1H-pyrrole-2-carboxamide], in the data set on pseudovirus HIV-1 HXB2, the IC50 was 2.1 ± 0.2 µM. For the same compound, the CC50 with TZM-bl cells was over 122 µM.
